# Key:
# Test in all cases: relative viability (nuclei count vs DMSO), 5 days (fraction); higher = more cells survive
# [1] = compound: O=c1[nH]cc(F)c(=O)[nH]1 [5-Fluorouracil] + Cc1cc(Nc2cc(N3CCN(C)CC3)nc(Sc3ccc(NC(=O)C4CC4)cc3)n2)n[nH]1 [Tozasertib] (partner 0.1 µM)
# In short: (§1)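 Each reported value is a median over duplicate plates. It expresses relative viability: treated-well nuclei count divided by vehicle-well nuclei count. Lung cancer cell lines in 1536-well plates were dosed by pin tool a day after seeding, alone with one drug or with a fixed anchor-drug dose plus five library-drug doses (not always all listed) in √10 steps, and nuclei were counted after 5 days.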
# Sulindac + Pemetrexed = compound: CC1=C(CC(=O)O)c2cc(F)ccc2/C1=C\c1ccc([S+](C)[O-])cc1 [Sulindac] + Nc1nc2[nH]cc(CCc3ccc(C(=O)N[C@@H](CCC(=O)O)C(=O)O)cc3)c2c(=O)[nH]1 [Pemetrexed] (partner 0.2 µM)
# In short: as §1
# [2] = compound: O=c1[nH]cc(F)c(=O)[nH]1 [5-Fluorouracil] + O=C(c1cc(Cc2n[nH]c(=O)c3ccccc23)ccc1F)N1CCN(C(=O)C2CC2)CC1 [Olaparib] (partner 8 µM)
# In short: as §1
# Sulindac + Vorinostat = compound: CC1=C(CC(=O)O)c2cc(F)ccc2/C1=C\c1ccc([S+](C)[O-])cc1 [Sulindac] + O=C(CCCCCCC(=O)Nc1ccccc1)NO [Vorinostat] (partner 1 µM)
# In short: as §1
Cell Line,relative viability ([1]; first compound 0.02 µM),relative viability ([1]; first compound 0.2 µM),relative viability ([1]; first compound 0.6325 µM),relative viability ([1]; first compound 2 µM),relative viability (Sulindac + Pemetrexed; first compound 0.08 µM),relative viability (Sulindac + Pemetrexed; first compound 0.253 µM),relative viability (Sulindac + Pemetrexed; first compound 0.8 µM),relative viability (Sulindac + Pemetrexed; first compound 2.53 µM),relative viability (Sulindac + Pemetrexed; first compound 8 µM),relative viability ([2]; first compound 0.02 µM),relative viability ([2]; first compound 0.2 µM),relative viability ([2]; first compound 0.6325 µM),relative viability ([2]; first compound 2 µM),relative viability (Sulindac + Vorinostat; first compound 0.08 µM),relative viability (Sulindac + Vorinostat; first compound 0.253 µM),relative viability (Sulindac + Vorinostat; first compound 0.8 µM),relative viability (Sulindac + Vorinostat; first compound 2.53 µM),relative viability (Sulindac + Vorinostat; first compound 8 µM)
LC-2-ad,0.443,0.382,0.365,0.293,0.29,0.27,0.273,0.263,0.254,0.712,0.682,0.513,0.348,0.833,0.843,0.669,0.693,0.821
NCI-H661,0.365,0.355,0.342,0.319,0.953,0.931,0.869,0.922,0.981,0.776,0.8,0.808,0.693,0.936,0.812,0.693,0.814,0.852
EPLC-272H,0.292,0.223,0.259,0.222,0.274,0.326,0.465,0.278,0.347,0.737,0.67,0.32,0.21,0.465,0.341,0.68,0.339,0.424
NCI-H1437,0.34,0.259,0.191,0.139,0.375,0.321,0.326,0.315,0.413,0.517,0.285,0.222,0.217,0.951,0.872,0.749,0.837,0.876
EKVX,0.35,0.172,0.147,0.131,0.471,0.421,0.323,0.423,0.433,0.667,0.277,,0.169,0.636,0.635,,0.652,0.771
NCI-H1651,0.626,0.602,0.543,0.441,0.766,0.626,0.581,0.569,0.613,0.172,0.2,0.188,0.175,0.623,0.57,0.486,0.577,0.593
HCC-15,0.396,0.455,0.43,0.232,0.213,0.223,0.209,0.22,0.235,0.741,0.707,0.521,0.33,0.94,0.885,0.738,0.835,0.975
LCLC-103H,0.536,0.511,0.305,0.212,0.458,0.45,0.505,0.44,0.491,0.801,0.741,0.559,0.46,0.872,0.773,0.729,0.72,0.799
NCI-H2347,0.606,0.425,0.303,0.292,0.429,0.394,,0.461,0.414,0.62,0.489,0.456,0.445,0.668,0.702,0.46,0.713,0.593
NCI-H1915,0.376,0.418,0.433,0.331,0.602,0.53,0.492,0.475,0.53,0.197,0.269,0.22,0.211,0.555,0.577,0.508,0.539,0.574
NCI-H650,0.765,0.384,0.309,0.257,1,0.88,0.845,0.932,1.09,0.282,0.323,0.26,0.293,0.506,0.429,0.334,0.379,0.579
NCI-H596,0.939,0.845,0.479,0.364,0.441,0.433,,0.445,0.544,0.66,0.694,0.57,0.491,0.589,0.606,,0.578,0.612
HCC-366,0.193,0.0738,0.0902,0.0478,0.205,0.183,,0.14,0.172,0.387,0.397,0.199,0.0788,0.365,0.333,,0.351,0.416
NCI-H2087,0.282,0.236,0.253,0.156,0.748,0.666,0.741,0.658,0.685,0.577,0.607,0.45,0.319,1.02,0.622,0.561,0.662,0.722
NCI-H2342,0.484,0.471,0.626,0.443,0.742,0.714,0.739,0.746,0.781,0.419,0.529,0.442,0.39,0.791,0.774,0.619,0.669,0.791
